Key:
[1] = test system: Rheumatoid Arthritis Synovial Fibroblast (RASF); test: In vitro inhibition of rheumatoid arthritis synovial fibroblast (RASF) proliferation; format: cell-based
PC3 (Prostate Tumour) = test: In vitro inhibition of tumour cell proliferation, PC3; format: cell-based
MCF7 (Breast Tumour) = test: In vitro inhibition of tumour cell proliferation, MCF7; format: cell-based
A549 (Lung Tumour) = test: In vitro inhibition of tumour cell proliferation, A549; format: cell-based
[2] = test system: TNFα production in hPBMCs; test: Inhibition of TNFα production from LPS-stimulated hPBMCs; format: cell-based, human; conditions: hPBMCs stimulated with LPS
Procedure: (§1) 2) Anti-Inflammatory Activity: Inhibition of the Production of Pro-Inflammatory Cytokines from Stimulated Human Peripheral Blood Mononuclear Cells (hPBMCs)
(§2) Compounds were tested at a concentration of 1 uM for cytokine release inhibition in hPBMCs stimulated with LPS (TNFα), PHA (IFNγ) and anti-CD3 (IL-17A, IL-17F, IL-21, IL-23): […]

[3] = test system: IFNγ production in hPBMCs; test: Inhibition of IFNγ production from PHA-stimulated hPBMCs; format: cell-based, human; conditions: hPBMCs stimulated with PHA
Procedure: as §1, §2

[4] = test system: IL-17A production in hPBMCs; test: Inhibition of IL-17A production from anti-CD3-stimulated hPBMCs; format: cell-based, human; conditions: hPBMCs stimulated with anti-CD3
Procedure: as §1, §2

[5] = test system: IL-17F production in hPBMCs; test: Inhibition of IL-17F production from anti-CD3-stimulated hPBMCs; format: cell-based, human; conditions: hPBMCs stimulated with anti-CD3
Procedure: as §1, §2

[6] = test system: IL-21 production in hPBMCs; test: Inhibition of IL-21 production from anti-CD3-stimulated hPBMCs; format: cell-based, human; conditions: hPBMCs stimulated with anti-CD3
Procedure: as §1, §2

[7] = test system: IL-23 production in hPBMCs; test: Inhibition of IL-23 production from anti-CD3-stimulated hPBMCs; format: cell-based, human; conditions: hPBMCs stimulated with anti-CD3
Procedure: as §1, §2

Row | IC50 (PC3 (Prostate Tumour)) | IC50 (MCF7 (Breast Tumour)) | IC50 (A549 (Lung Tumour)) | Compound | IC50 [1] | % Inhibition of Proinflammatory Cytokine Production at 1 uM, TNFα [2] | % Inhibition of Proinflammatory Cytokine Production at 1 uM, IFNγ [3] | % Inhibition of Proinflammatory Cytokine Production at 1 uM, IL-17A [4] | % Inhibition of Proinflammatory Cytokine Production at 1 uM, IL-17F [5] | % Inhibition of Proinflammatory Cytokine Production at 1 uM, IL-21 [6] | % Inhibition of Proinflammatory Cytokine Production at 1 uM, IL-23 [7]
1 | 3340 nM | 352 nM | 682 nM | c1cc(-c2nc(N3CCOCC3)c3oc4ncc(CN5CCOCC5)cc4c3n2)c2cc[nH]c2c1 [K, 2-(1H-Indol-4-yl)-4-morpholin-4-yl-8-morpholin-4-ylmethyl-pyrido[3′,2′:4,5]furo[3,2-d]pyrimidine] | 3020 nM |  |  |  |  |  | 
2 |  |  |  | (E)-1-(4-Methyl-piperazin-1-yl)-3-[4-morpholin-4-yl-2-(1H-pyrrolo[2,3-b]pyridin-4-yl)-pyrido[3′,2′:4,5]furo[3,2-d]pyrimidin-8-yl]-propenone |  | 74% | 67% | 77% | 74% | 82% | 93%
